# Patent US20230391868A1, “COMPOSITIONS FOR AND METHODS OF TREATING CANCER” (The George Washington University, priority 2022, published 2023)
# Experiments:
# A31A7 macrophages = assay: Western Blotting of A31A7 macrophages polarized to M2; assay type: cell-based, mouse; details: Western Blot, M2 A31A7 (FIG. 7F)
# Experimental: Cells were treated with the respective compounds for 24 h. Then, cells were lysed using RIPA buffer (ThermoFisher Scientific Pierce, 89901, Waltham, MA) supplemented with 1× protease and phosphatase inhibitor (ThermoFisher Scientific, A32961). Lysates were sonicated at 4° C. for 8 minutes (8 cycles of 30 sec on, 30 sec off). Protein concentration was quantified using a BCA protein assay (ThermoFisher Scientific, 23225) following manufacturer's instructions. Samples were mixed with 6× Laemmli SDS sample reducing buffer (Alfa Aesar, J61337AC, Tewksbury, MA), and boiled at 80° C. for 10 min. Next, samples were loaded on to 4%-20% gels (Bio-Rad, 4561096, Hercules, CA), transferred to PVDF membranes and blocked with Odyssey Blocking Buffer (LI-COR Biosciences, 927-40000, Lincoln, NE). The following primary antibodies used for immunoblotting were purchased from Cell Signaling Technologies (Danvers, MA): tubulin (3873), acetylated tubulin (3971), arginase-1 (93668), and SIRPα (13379). Primary antibody recognizing HDAC6 was purchased from Assay Biotechnology (C0226, Fremont, CA), and iNOS antibody was purchased from ThermoFisher Scientific (PA3-030A). Bands were detected using Azure Biosystems Imaging System c600 (Azure Biosystems, Dublin, CA).
# [1] = test system: A31A7 macrophages and BMDMs; assay: Macrophage M1/M2 marker gene expression by qRT-PCR; assay type: cell-based, mouse
# Experimental: Bone marrow-derived macrophages were isolated from the femurs and tibias of wild-type C57/Bl6, HDAC6 knockout (C57BL/6J-Hdac6em2Lutzy/J, 029318, Jackson Laboratory), or UBC-GFP (C57BL/6-Tg(UBC-GFP)30Scha/J, 004353, Jackson Laboratory). Isolated bone marrow cells were cultured in RPMI 1640 complete medium with 10% FBS, 1% NEAA, and 1% penicillin-streptomycin in 5% CO2 at 37° C. Medium was supplemented with murine recombinant M-CSF (20 ng/mL, 576404, Biolegend) to differentiate monocytes into macrophages. Three days after bone marrow isolation, undifferentiated and floating cells were washed with PBS and replaced with fresh RPMI media. […]
# (§1) Macrophages were polarized to M1-like phenotype using 50 ng/mL of interferon gamma (IFNγ, 575306, Biolegend) and 100 ng/mL of bacterial lipopolysaccharide (LPS, L2880, Sigma Aldrich, St. Louis, MO) for 24 hours. To polarize macrophages towards the M2-like phenotype, macrophages were stimulated with 20 ng/mL of IL-4 (214-14, PeproTech) and 20 ng/mL of IL-13 (575904, Biolegend). THP1 monocytes were treated with 5 ng/mL of phorbol 12-myristate 13-acetate (PMA) to induce differentiation into macrophages. Once converted to macrophages, media was replaced to remove PMA prior to treatment and/or polarization. Polarization towards M1 and M2 phenotypes was performed with respective recombinant human cytokines from PeproTech: 50 ng/mL of IFNγ (300-02), 20 ng/mL IL-4 (200-04), and 20 ng/mL IL-13 (200-13). 100 ng/mL LPS was also used to polarize toward the M1 phenotype. 3. In vivo Studies.
# qRT-PCR: Total RNA was extracted from cells using the Trizol reagent according to manufacturer's instructions (ThermoFisher Scientific, 15596018). Samples were then processed immediately or stored at −80° C. RNA was quantified using a NanoDrop One Spectrophotometer (ThermoFisher Scientific). The 260/280 ratios were routinely over 1.8. Sample cDNA was produced using the iScript cDNA synthesis kit (Bio-Rad, 1708891). Target mRNA was quantified using MyIQ single-color real-time PCR detection system from Bio-Rad (Bio-Rad, Hercules, CA) and iQ SYBR green Supermix (Bio-Rad, 1708882). The following primers were synthesized by Invitrogen (Waltham, MA) with sequences designed by Origene (Rockville, MD): mouse R-actin (MP200232), mouse Nos2 (MP208933), mouse MRC1 (MP207800), human R-actin (HP204660), human IL-1β (HP200544), human MRC1 (HP206121), human NOS2 (HP200591), human CD209 (HP214086), mouse SIRPα (MP215450), mouse LRP1 (MP207604), human LRP1 (HP206040), mouse MFGE8 (MP208190), human MFGE8 (HP225757), mouse CD36 (MP201923), human CD36 (HP200058), and mouse CD47 (MP201932). Primers for mouse ARG-1 (PPM31770C) and human SIRPα (QT01031051) were purchased from Qiagen (Hilden, Germany). Human CD47 primer sequences were obtained from Sudo T, et al and are 5′-[…]-3′ (sense) (SEQ ID NO:01) and 5′-[…]-3′ (antisense) (SEQ ID NO:02) (Sudo T, et al. (2017) Oncol. Lett. 14:801-809). Human CD86 primer sequences are 5′-[…]-3′ (sense) (SEQ ID NO:03) and 5′-[…]-3′ (antisense) (SEQ ID NO:04). Mouse CD80 sequences are 5′-[…]-3′ (sense) (SEQ ID NO:05) and 5′-[…]-3′ (antisense) (SEQ ID NO:06). Cycling conditions were set as per manufacturer's instructions. Single product amplification was confirmed by melting curve analysis. Quantification is expressed in arbitrary units and target mRNA levels were normalized to R-actin expression.
# WM1361A melanoma cells = assay: CD47 gene expression upon IFNγ in WM1361A cells; assay type: cell-based, human; details: NextA 2.5 μM, 5 μM, and 10 μM, 12 hr post-stimulation (FIG. 3K)
# Experimental: (§2) qRT-PCR: Total RNA was extracted from cells using the Trizol reagent according to manufacturer's instructions (ThermoFisher Scientific, 15596018). Samples were then processed immediately or stored at −80° C. RNA was quantified using a NanoDrop One Spectrophotometer (ThermoFisher Scientific). The 260/280 ratios were routinely over 1.8. Sample cDNA was produced using the iScript cDNA synthesis kit (Bio-Rad, 1708891). Target mRNA was quantified using MyIQ single-color real-time PCR detection system from Bio-Rad (Bio-Rad, Hercules, CA) and iQ SYBR green Supermix (Bio-Rad, 1708882). […] Quantification is expressed in arbitrary units and target mRNA levels were normalized to R-actin expression.
# (§3) This phenomenon was further examined in human melanoma cell lines to test the translational application of the results obtained using mouse models. […] Furthermore, the effects of HDAC6 KD on IFNγ-driven CD47 upregulation was analyzed. […] The effects of pharmacological inhibition of HDAC6 in other human melanoma cell lines (WM1361A and WM793) were also assessed. […]
# [2] = test system: WM793 human melanoma cells; assay: CD47 gene expression upon IFNγ in WM793 cells; assay type: cell-based; details: 5 μM NextA (FIG. 3L)
# Experimental: as §2, §3
# SIRPα = SIRPα gene expression in THP1-derived macrophages by qRT-PCR; assay type: cell-based, human; details: qRT-PCR (FIG. 2A)
# Experimental: as §1
# as §2, with “Samples were then processed immediately or stored at −80° C.” left out, “The 260/280 ratios were routinely over 1.8. Sample cDNA was produced using the iScript cDNA synthesis kit (Bio-Rad, 1708891).” left out
compound,measurement,setting,value
"CCCCN(Cc1ccc(C(=O)NO)cc1)C(=O)Nc1ccccc1 [NextA, Nexturastat A]",ARG1 expression,A31A7 macrophages,decrease
same,HDAC6 inhibitor potency compared with Tubacin and Tubastatin A,A31A7 macrophages,most potent HDAC6 inhibitor
same,"acetylated tubulin, a marker for HDAC6 inhibition",A31A7 macrophages,robust increase
same,phenotypic changes in both macrophage polarizations,"[1]; A31A7, 5 μM of NextA",elicited observable phenotypic changes
same,expression of Cd80 in M1 polarized macrophages,"[1]; A31A7, different concentrations of NextA, qRT-PCR (FIG. 7B)",concentration-dependent effect
same,expression of Arg1 in M2 polarized macrophages,"[1]; A31A7, different concentrations of NextA, qRT-PCR (FIG. 7C)",concentration-dependent effect
same,Nos2 and Cd80 at the transcriptional level,"[1]; A31A7 and BMDMs polarized to M1 or M1(IFNγ), 5 μM (FIG. 1A)",tended to significantly upregulate
same,expression of M2-associated markers Arg1 and Mrc1,"[1]; A31A7 cells and BMDMs, M2, qRT-PCR, 5 μM (FIG. 1C)",significantly downregulated
same,IFNγ-driven CD47 upregulation,WM1361A melanoma cells,prevented
same,IFNγ-driven CD47 upregulation,[2],corroborated
same,SIRPα expression at the transcriptional level,SIRPα,significantly downregulated
